# Publication PMC12040169 (PLOS Biology, 2025)
# Peptide text beside a SMILES is read from it. * marks the point of attachment. Bz = O=C(c1ccccc1)*
# Experiment: in vitro
# Details: human, hela cells, % viability
row,Structure (SMILES),"viability at 28.5 h, 10 µM"
1,CCC(=O)NCCc1c[nH]c2ccc([N+](=O)[O-])cc12 [CBK088059],110%
2,Cc1ccc(S(=O)(=O)c2nc(NCCN3CCOCC3)sc2Cl)cc1 [CBK269615],79.7%
3,Cc1noc(C)c1NC(=O)c1cc2ccccc2n1C [CBK200311],108%
4,S=c1ccc(N/N=C/C2CC=CCC2)n[nH]1 (stereo not shown) [CBK018655],95.3%
5,CCNc1nc(-c2ccc3c(c2)CCCN3S(C)(=O)=O)cs1 [CBK305861],89.8%
6,Cc1cc(NC(=O)CN2CCC(Cc3ccccc3)CC2)nc2c1c(=O)oc1ccccc12 [CBK291261],87.2%
7,C/C(=N/Nc1ccc([N+](=O)[O-])cc1[N+](=O)[O-])C1CC1 [CBK260921],104%
8,Cc1ccc(N(CC(=O)NCC2CCCO2)S(C)(=O)=O)cc1 (stereo not shown) [CBK058709],88.1%
9,O=C(CCn1cccn1)Nc1ccc(OC2CCCC2)cc1 [CBK281861],87.1%
10,COc1cccc(C(NC(=O)Cc2ccc(-n3nnnc3C)cc2)c2ccccc2)c1 (stereo not shown) [CBK285605],93.4%
11,O=C(C1CC(O)CN1)N1CC2(CCCC2)c2c(F)cccc21 (stereo not shown) [CBK304269C],99%
12,Cc1ccccc1C(NC(=O)C1CCN(C(=O)OCc2ccccc2)CC1)c1ccc(=O)[nH]c1 (stereo not shown) [CBK083200],85.7%
13,Cc1ccc(C)c(C(=O)C2=C(O)C(=O)N(CCCN3CCOCC3)C2c2cccc([N+](=O)[O-])c2)c1 (stereo not shown) [CBK265503],86.2%
14,Cn1c(COc2ccccc2)nnc1SCc1nnc(-c2ccccc2)o1 [CBK269628],94.1%
15,Cc1ccc(S(=O)(=O)N(CC(=O)O)c2ccccc2C)cc1 [CBK262423],101%
16,O=C(Nc1cccc(Cl)c1)Nc1ccc(C(=O)O)c(O)c1 [CBK269518],94.2%
17,CC(C)NC(=O)c1cc(C2CN(Cc3ccc4ncccc4c3)CCO2)nc2ccccc12 (stereo not shown) [CBK285895],92.9%
18,COCCNc1nc2c(c(N3CCSCC3)n1)CCNCC2 [CBK307510],111%
19,NS(=O)(=O)c1ccc(NC(=S)NNC(=O)c2cc(Br)ccc2Cl)cc1 [CBK266970],89.3%
20,O=C(O)C(c1c[nH]c2ccccc12)N1CCc2ccccc2C1 (stereo not shown) [CBK286664],84.5%
21,O=C(CSc1nnc(-c2ccco2)[nH]1)Nc1cccc(Cl)c1 [CBK293990],96.7%
22,O=C(Cn1cnc2ccccc21)N1CCc2[nH]c3ccccc3c2C1 [CBK281860],74.7%

row,Structure (SMILES),"viability at 28.5 h, 10 µM"
1,O=C(O)CCc1ccc(-c2ccc(F)cc2)n1-c1cc(Cl)ccc1Cl [CBK264754],111%
2,COc1ccc(NC(=O)N[C@H]2[C@H](O)[C@@H](Sc3ccccc3)[C@@H]3OC[C@H]2O3)cc1 [CBK288813],96.4%
3,O=C(CCC(=O)c1ccccc1)NC1CCc2ccccc21 (stereo not shown) [CBK003351],103%
4,Cc1cc2c(s1)c1cnn(CC(=O)N3CCCC3)c(=O)c1n2C [CBK284153],85.6%
5,C/C(O)=C1/C(=O)N(c2nc3ccccc3s2)N=C1CC(=O)O [CBK265828],90.5%
6,Fc1ccc(-c2cncc(Nc3ccc4c(c3)OC(F)(F)C(F)(F)O4)n2)c(F)c1 [CBK065692],103%
7,CN1CC(=O)N2CCOC(C2)c2cccc(n2)NC(=O)C/C=C/CC2(CCN(Cc3ncc[nH]3)CC2)C1=O (stereo not shown) [CBK292196],103%
8,O=C(c1ccccn1)N1CCCC(c2cc3ccccc3cn2)C1 (stereo not shown) [CBK282832],96.3%
9,CC(Oc1ccccc1)C(=O)Nc1ccccc1-c1ccccc1 (stereo not shown) [CBK264059],111%
10,O=C(NCc1ccccn1)c1ccc(-n2ccnc2)c(-n2cccc2)c1 [CBK285347],80.8%
11,O=C(CSc1nnc(SCc2cccc3ccccc23)s1)c1ccc2c(c1)OCO2 [CBK267576],100%
12,CC(=O)NC[C@H]1C[C@@H]2CCN1C[C@@H]2c1cc(-c2ccco2)nc(C)n1 [CBK289128],102%
13,COc1cc(Br)c(-c2nnn[nH]2)cc1OC [CBK270093],108%
14,Cc1nc2ccc(C(=O)N(C)CCN(C)C)cn2c1N(C)Cc1cccs1 [CBK146083],102%
15,Cc1noc(C)c1NC(=O)N(Cc1ccccc1C(F)(F)F)C1CCC(N)CC1 (stereo not shown) [CBK045963C],103%
16,O=C(CCCN1CCN(C(=O)NC2CCC(O)CC2)CC1)c1ccc(F)cc1 (stereo not shown) [CBK025156C],97%
17,Cc1cc(NS(=O)(=O)c2ccc(NC(=O)c3cc(-c4ccc(C)o4)nc4ccccc34)cc2)nc(C)n1 [CBK262628],93.9%
18,CCn1cc(CN2CCN(C(=O)C3C4CCCCC43)CC2)c(C)n1 (stereo not shown) [CBK281545],97.1%
19,Cc1ccccc1C(=O)Nc1ccc(S(=O)(=O)Nc2nccs2)cc1 [CBK086797],89.4%
20,CCNCc1cc2c(C)nn(-c3ccc(F)cc3)c2[nH]c1=O [CBK283118],107%
21,Cn1ccnc1C1(O)CC2CCC(C1)N2C(=O)Nc1ccccc1F (stereo not shown) [CBK284178],88.2%
22,O=C(c1ccco1)N1CCN(Cc2nc3ccccc3c(=O)n2-c2ccc(F)cc2)CC1 [CBK267226],94.3%

row,Structure (SMILES),"viability at 28.5 h, 10 µM"
1,CC(C)(C)OC(=O)NCCNCc1ccccc1Br [CBK056693],92.1%
2,Cc1c(Cc2ccccc2)sc(NC(=O)c2cccnc2)c1C(N)=O [CBK269851],101%
3,COC(=O)C(N)c1c[nH]c2ccccc12 (stereo not shown) [CBK089840],104%
4,COc1ccc(C(=O)Nc2c(C)noc2C)c(OC)n1 [CBK200300],104%
5,COC(=O)[C@@H](C)NC(=O)[C@H]1CN(C(=O)Nc2ccccc2)CCN1C(=O)NC(C)C [CBK289631],113%
6,CCCOc1ccc(C(=O)N2CCN(c3ccccc3)CC2)cc1 [CBK304327],90.7%
7,O=C(NC(Cc1ccccc1)C(=O)N1CCCC1C(=O)O)c1ccccc1 (stereo not drawn) [CBK264058] (Bz-Phe-Pro-OH; configuration not given here),90.8%
8,O=C(O)CCSc1nc2ccccc2[nH]1 [CBK262056],96.2%
9,O=C(O)c1ccc(CN2C(=O)COc3ccccc32)o1 [CBK270276],104%
10,COCC(=O)Nc1nc2c(s1)C[C@]1(C)CC[C@@H]3[C@H](OC(=O)[C@H]3C)[C@H]1[C@@H]2C [CBK289430],105%
11,O=S(=O)(c1ccc(-c2csc(-c3cccnc3)n2)cc1)N1CCCCCC1 [CBK265502],106%
12,O=C(NCCCc1ccccn1)c1cccc(N2CCCC2=O)c1 [CBK282643],85.9%
13,O=c1[nH]c2ccccc2n1CCOc1ccccc1 [CBK288008],98.5%
14,O=C(NC1CCCC1)c1ccc2c(=O)[nH]cnc2c1 [CBK287990],90.1%
15,Cc1ccc(OCCn2c(=N)n(CCN3CCOCC3)c3ccccc32)cc1 [CBK269085B],97.9%
16,Cc1noc(C)c1CC(=O)N1CCc2[nH]c3ccccc3c2C1 [CBK281848],97.8%
17,Clc1ccc(OCCOc2cncc(N3CCCC3)n2)cc1 [CBK115668],87.4%
18,O=C(CN1CCCc2ccccc21)c1ccsc1 [CBK138333],91.5%
19,NC1CC(c2cc(NCCCc3nnc4ccccn34)ncn2)C1 (stereo not shown) [CBK307120],104%
20,CSCCCNC(=O)N(CCc1ccccc1)Cc1ccccc1 [CBK155317],87.2%
21,CCc1cccc2c(CN3CCc4c(nc(C)[nH]c4=O)C3)c[nH]c12 [CBK283993],94.6%
22,Cc1c(C)n(Cc2ccco2)c2ncnc(NCC(=O)O)c12 [CBK307563],101%

row,Structure (SMILES),"viability at 28.5 h, 10 µM"
1,Cc1c(Cc2ccccc2)c(N2CCN(C/C=C/c3ccccc3)CC2)n2c(nc3ccccc32)c1C#N [CBK263112],101%
2,CCOC(=O)C1CCCN(Cc2nnsc2Cl)C1 (stereo not shown) [CBK304848],95.7%
3,Cc1cc(-c2cn(C)nc2C2CCCCN2C(=O)C2CCC2)on1 (stereo not shown) [CBK283403],83.7%
4,Cc1cc(C)nc(SCCCn2c(=O)[nH]c3ccccc32)n1 [CBK264485],112%
5,Cn1cc(-c2nccnc2OC2CCCCC2)cn1 [CBK107072],99.7%
6,NS(=O)(=O)c1ccc(/N=C/c2cccc(OCc3ccccc3)c2)cc1 [CBK261594],92.1%
7,CCCn1nnn(-c2cc(OCCOCC)c(Cl)cc2Cl)c1=O [CBK026016],99%
8,Cc1noc(C)c1S(=O)(=O)Nc1cccc(-c2cnco2)c1 [CBK067108],97.1%
9,Cc1ccc(-c2nc3ncccc3o2)cc1NC(=O)c1ccc(F)cc1 [CBK263043],103%
10,Fc1ccc(-c2c[nH]nc2C2CCOCC2)cc1 [CBK283464],103%
11,O=C(Cn1c2ccccc2c2ccccc21)N1CCn2cnnc2C1 [CBK283724],88.2%
12,CCCC/C=C/c1cn2ccnc2c(NCCc2ccccn2)n1 [CBK066275],106%
13,CN(C)CCN1CCN(c2nc(-c3cccc4cccnc34)cnc2N)CC1 [CBK063464],94.3%
14,CC(C)c1ccc2c(c1)C(N1CCN(C)CC1)Cc1cccnc1S2 (stereo not shown) [CBK026244G],98.7%
15,COc1ccc(N(C)C(=O)c2ccc(Cn3nc(NC(=O)Cc4ccc5c(c4)OCO5)c4ccccc43)cc2)cc1 [CBK059530],103%
16,Cc1cc(C)n(CC(O)CN(Cc2ccco2)CC2CC=CCC2)n1 (stereo not shown) [CBK283159],95.6%
17,CCCc1cc(C(=O)N[C@@H]2CCOC[C@H]2Oc2ccc(CO)cc2)cs1 [CBK306700],91.6%
18,O=C(Nc1cccc(-c2noc(-c3ccccn3)n2)c1)c1cccs1 [CBK270283],88.9%
19,c1cncc(COc2nc3ccccc3nc2N2CCCC2)c1 [CBK115762],93.4%
20,O=[N+]([O-])c1ccc(S(=O)(=O)NCCSCc2ccco2)cc1 [CBK267503],94.1%
21,O=C(CSc1nnc(-c2ccccc2)n1-c1ccc(Cl)cc1)NCc1ccco1 [CBK266637],99.2%

# Same assay, conditions: human, hela cells, % viability, bulk resorufin, single well
row,Structure (SMILES),"viability at 28.5 h, 10 µM"
1,CCc1ccccc1N1C(=O)NC(=O)/C(=C\c2ccc(OCC(=O)O)c(Cl)c2)C1=O [CBK264107],95.2%
